Measured values: patent US20240294910A1, “NOVEL THERAPEUTIC AGENT FOR SEPTICEMIA, AND A METHOD FOR SCREENING FOR SAME” (Chugai Seiyaku Kabushiki Kaisha, priority 2014, published 2024)

Assays:
Format in all cases: cell-based, mouse
Arid5A mRNA = Arid5A mRNA expression by qPCR in LPS-stimulated peritoneal macrophages; details: peritoneal macrophages from C57BL/6 mice, LPS (1 g/mL), test agent 20 μM, 2 hours after LPS stimulation, vs absence of CPZ; FIG. 6
Description: (§1) Peritoneal macrophages from C57BL/6 mice (aged 6 to 8 weeks) were stimulated with LPS ([…]) in the presence or absence of a test agent (20 μM). The relative expression levels of mRNAs of Arid5A, IL-6, and TNF-α were determined in the stimulated peritoneal macrophages by quantitative PCR (qPCR). The expression level of Arid5A mRNA was determined 2 hours after LPS stimulation. The expression levels of IL-6 mRNA and TNF-α mRNA were determined 2 hours, 6 hours, 12 hours, and 24 hours after LPS stimulation. FIGS. 6 to 8 show the results when chlorpromazine (CPZ) was used as a test agent.

IL-6 mRNA = IL-6 mRNA expression by qPCR in LPS-stimulated peritoneal macrophages; details: LPS (1 g/mL), test agent 20 μM, vs absence of CPZ, FIG. 7
Description: as §1

TNF-α mRNA = TNF-α mRNA expression by qPCR in LPS-stimulated peritoneal macrophages; details: LPS (1 g/mL), test agent 20 μM, determined 2, 6, 12 and 24 hours after LPS stimulation, FIG. 8
Description: as §1

**Q.** Which “expression of Arid5A mRNA (qPCR)” value (Arid5A mRNA) does the source give for `CN(C)CCCN1c2ccccc2Sc2ccc(Cl)cc21` [CPZ, chlorpromazine] here?
**A.** Its value is “markedly suppressed”.

**Q.** And the “expression of IL-6 mRNA (qPCR)” value (IL-6 mRNA; 2 hours after LPS stimulation)?
**A.** Its value is “markedly suppressed”.

**Q.** And the “expression of IL-6 mRNA (qPCR)” value (IL-6 mRNA; 6 hours after LPS stimulation)?
**A.** Its value is “markedly suppressed”.

**Q.** What about the “expression of TNF-α mRNA (qPCR)” value (TNF-α mRNA) of the same molecule?
**A.** The value was “no effect”.
